Assays:
NF-κB = assay: Inhibition of NF-κB in human monocytic cell lines (U937-3xkB-LUC luciferase assay); type: cell-based; settings: U937-3xkB-LUC cells, NF-κB induced by LPS or human TNF-α; FIG. 1
Experimental: The novel compounds and DHA were solubilized to 12.5 μM in DMSO flushed with argon and stored at −20° C. Dexamethasone 10 μM in DMSO was used as positive control.
U937-3xkB-LUC cells, (Carlsen, J. Immun, 2002), were cultured in RPMI-1640 medium with L-glutamine ([…]), penicillin (50 U/ml), streptomycin ([…]), hygromycin (75 ug/ml), 10% Fetal Bovine Serum at 37° C. and 5% CO2. In the Cells were seeded in 24-well plates wherein 1% Fetal Bovin Serum was added to the medium. NF-κB activity was induced by lipopolysaccharide (LPS) (1 ug/ml) or human TNF-α (10 ng/ml). Cell viability was measured by trypan blue staining.
Luciferase activity was measured by imaging with a IVIS Imaging System from Xenogen Corp., USA. The Luminescence was detected after 1 min. and 5 min after addition of 0.2 mg d-luciferin per. ml cell medium. Number of photons in each well pr. second was calculated using Living Image Software (Xenogen Corp., USA).

[1] = biological target: T1, ligand binding domain of human RXRα (Homo sapiens, UniProt P19793); assay: GAL4-hRXRα LBD luciferase reporter, transient transfection in COS-1 cells; settings: for Luciferase activation (fold activation) hRXRα: 10 μM, GAL4-hRXRα LBD chimera in COS-1 cells, negative control = 1.00
T1 sequence (P19793 227-458 limits assumed): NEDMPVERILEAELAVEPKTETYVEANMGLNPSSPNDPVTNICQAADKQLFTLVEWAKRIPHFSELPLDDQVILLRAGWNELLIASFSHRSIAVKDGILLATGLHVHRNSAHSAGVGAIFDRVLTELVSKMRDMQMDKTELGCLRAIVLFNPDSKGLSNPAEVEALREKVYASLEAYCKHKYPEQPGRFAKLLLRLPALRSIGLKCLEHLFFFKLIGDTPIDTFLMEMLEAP

[2] = biological target: T2, ligand binding domain of human PPARα (Homo sapiens, UniProt Q07869); assay: GAL4-hPPARα LBD luciferase reporter, transient transfection in COS-1 cells; settings: for Luciferase activation (fold activation) hPPARα: 10 μM, GAL4-hPPARα LBD chimera in COS-1 cells, negative control = 1.00; for PPAR selectivity profile (in words): conclusion from table 1, 10 μM
T2 sequence (Q07869 239-466 limits assumed): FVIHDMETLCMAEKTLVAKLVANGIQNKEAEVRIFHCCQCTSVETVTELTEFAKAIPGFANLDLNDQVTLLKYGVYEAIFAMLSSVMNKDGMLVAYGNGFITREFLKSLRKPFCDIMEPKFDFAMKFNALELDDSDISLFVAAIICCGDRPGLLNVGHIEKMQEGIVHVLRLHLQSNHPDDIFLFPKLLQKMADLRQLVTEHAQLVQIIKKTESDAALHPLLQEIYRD

[3] = biological target: T3, ligand binding domain of human PPARγ (Homo sapiens, UniProt P37231); assay: GAL4-hPPARγ LBD luciferase reporter, transient transfection in COS-1 cells; settings: 10 μM; GAL4-hPPARγ LBD chimera in COS-1 cells; negative control = 1.00
T3 sequence (P37231 238-503 limits assumed): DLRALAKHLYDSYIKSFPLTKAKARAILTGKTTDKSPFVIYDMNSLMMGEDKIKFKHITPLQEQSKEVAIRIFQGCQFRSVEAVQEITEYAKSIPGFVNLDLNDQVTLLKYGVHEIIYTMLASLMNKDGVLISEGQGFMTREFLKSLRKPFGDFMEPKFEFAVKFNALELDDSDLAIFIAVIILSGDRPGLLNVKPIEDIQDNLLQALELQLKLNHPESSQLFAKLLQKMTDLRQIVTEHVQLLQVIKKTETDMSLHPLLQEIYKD

[4] = biological target: T4, ligand binding domain of human PPARδ (Homo sapiens, UniProt Q03181); assay: GAL4-hPPARδ LBD luciferase reporter, transient transfection in COS-1 cells; settings: 10 μM; GAL4-hPPARδ LBD chimera in COS-1 cells; negative control = 1.00
T4 sequence (Q03181 211-439 limits assumed): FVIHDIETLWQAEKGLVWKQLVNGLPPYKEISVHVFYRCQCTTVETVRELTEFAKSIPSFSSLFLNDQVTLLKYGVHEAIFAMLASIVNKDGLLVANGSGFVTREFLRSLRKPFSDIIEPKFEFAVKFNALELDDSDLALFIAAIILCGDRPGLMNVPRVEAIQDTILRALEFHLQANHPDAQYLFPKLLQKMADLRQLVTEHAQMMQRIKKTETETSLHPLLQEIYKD

Structure (SMILES) | Inhibition of the NF-κB pathway (in words) (NF-κB) | Luciferase activation (fold activation) hRXRα [1] [fold activation] | RXRα ligand activity (in words) ([1]; conclusion from table 1, 10 μM) | Luciferase activation (fold activation) hPPARα [2] [fold activation] | PPAR selectivity profile (in words) [2] | Luciferase activation (fold activation) hPPARγ [3] [fold activation] | Luciferase activation (fold activation) hPPARδ [4] [fold activation]
CC/C=C\C/C=C\C/C=C\C/C=C\CC/C=C/C=C/C(C)=C/C(=O)O [Compound 25, (2E,4E,6E,10Z,13Z,16Z,19Z)-3-methyl-docosa-2,4,6,10,13,16,19-heptaenoic acid] | potent inhibitors of the NF-κB pathway | 1.57 ± 0.08 | RXRα ligand | 8.27 ± 0.81 | PPAR pan modulators/activators | 4.32 ± 0.29 | 1.47 ± 0.38
CC/C=C\C/C=C\C/C=C\C/C=C\C/C=C\CCC/C(C)=C/C(=O)O [Compound 4, (2E,7Z,10Z,13Z,16Z,19Z)-3-methyl-docosa-2,7,10,13,16,19-hexaenoic acid] | – | 0.90 ± 0.08 | – | 4.51 ± 0.52 | selective PPARα modulators/activators | 1.56 ± 0.12 | 1.28 ± 0.08
CC/C=C\C/C=C\C/C=C\C/C=C\CC/C=C/C=C/C(=O)O [Compound 13, (2E,4E,8Z,11Z,14Z,17Z)-icosa-2,4,8,11,14,17-hexaenoic acid] | potent inhibitors of the NF-κB pathway | 0.81 ± 0.05 | – | 4.89 ± 0.31 | selective PPARα modulators/activators | 1.63 ± 0.06 | 1.11 ± 0.16
CC/C=C\C/C=C\C/C=C\C/C=C\CC/C=C/C=C(\C)C(=O)O [Compound 11, (2E,4E,8Z,11Z,14Z,17Z)-2-methyl-icosa-2,4,8,11,14,17-hexaenoic acid] | – | 0.84 ± 0.09 | – | 6.79 ± 0.21 | selective PPARα modulators/activators | 1.67 ± 0.11 | 1.17 ± 00.20
Cc1cccc(Nc2cc(Cl)nc(SCC(=O)O)n2)c1C [Wy14643, reference compound] | – | – | – | 2.27 ± 0.04 | – | – | –

Source: US8178708B2, “Lipid derivatives” (Pronova Biopharma Norge AS, priority 2006, dated 2012)
